Experimental findings from patent US9663573B2, “Methods of treating liver conditions using Notch2 antagonists” (GENENTECH, INC., priority 2011, dated 2017) are described below.

SMILES strings stand for the structures.

The target of one assay is T1, Notch2 (Mus musculus, UniProt O35516).
T1 construct: Cell cultures were established by culturing primary oval cells on Sw-3T3 fibroblasts; endogenous in cells; host or cells: primary mouse liver oval (progenitor) cells
The assay can be described thus: Notch2 signaling in cultured oval cells (activated Notch2 ICD by Western blot, Hes1 expression). The class given is cell-based. The settings on record: FIG. 2H. From the text: The anti-activated Notch2 antibody (clone 40-2-7) was generated against the peptide VIMAKRKRKHGSLW, corresponding to amino acids 1697-1710 of the human Notch2 protein sequence (SEQ ID NO:73), coupled to KLH (YenZym Custom Antibodies, LLC). Splenocytes from a rabbit producing an antibody with the appropriate specificity were used to generate hybridomas (Epitomics, Inc.). Clone 40-2-7 was identified by screening the resulting rabbit monoclonal antibodies by immunoblotting and immunohistochemistry. This antibody recognizes both human (FIG. 7B, left panel) and mouse (FIG. 7B, right panel) active Notch2 at endogenous levels.
Progenitors cultured in the culture system maintained growth (FIG. 2A) and formed colonies consisting of small, tightly packed cells with a high nuclear-cytoplasmic ratio and a distinct raised edge (FIG. 2A, left panel). The cells within these colonies were uniformly EpCAM positive (FIG. 2A, right panel). […] Activated Notch2 was detected by Western blot analysis using a rabbit monoclonal antibody raised against the S3 cleaved form of the human Notch2 protein (FIG. 7B). […]
Notch2 signaling was active in cultured oval cells, as transcriptionally active Notch2 intracellular domain (ICD) could be detected using an antibody specific to the γ-secretase cleaved form of this receptor (FIG. 2H). […]

Assay [1] relates to liver progenitor cells (oval cells). Nature of the assay: Primary oval cell culture on Sw-3T3 feeder fibroblasts: colony formation and proliferation. Format: cell-based, mouse. From the text:
To elucidate the role of Notch signaling in liver regeneration, an in vitro culture system was developed. Cell cultures were established by culturing primary oval cells on Sw-3T3 fibroblasts (ATCC), arrested with Mitomycin C (Sigma), in High Glucose Dulbecco's Modified Eagle Medium (DMEM; Invitrogen) supplemented with 15% Fetal Calf Serum (Sigma), non-essential amino acids (Invitrogen), Glutamax (Invitrogen), and ITS (Invitrogen).

T1 sequence (O35516 26-2473): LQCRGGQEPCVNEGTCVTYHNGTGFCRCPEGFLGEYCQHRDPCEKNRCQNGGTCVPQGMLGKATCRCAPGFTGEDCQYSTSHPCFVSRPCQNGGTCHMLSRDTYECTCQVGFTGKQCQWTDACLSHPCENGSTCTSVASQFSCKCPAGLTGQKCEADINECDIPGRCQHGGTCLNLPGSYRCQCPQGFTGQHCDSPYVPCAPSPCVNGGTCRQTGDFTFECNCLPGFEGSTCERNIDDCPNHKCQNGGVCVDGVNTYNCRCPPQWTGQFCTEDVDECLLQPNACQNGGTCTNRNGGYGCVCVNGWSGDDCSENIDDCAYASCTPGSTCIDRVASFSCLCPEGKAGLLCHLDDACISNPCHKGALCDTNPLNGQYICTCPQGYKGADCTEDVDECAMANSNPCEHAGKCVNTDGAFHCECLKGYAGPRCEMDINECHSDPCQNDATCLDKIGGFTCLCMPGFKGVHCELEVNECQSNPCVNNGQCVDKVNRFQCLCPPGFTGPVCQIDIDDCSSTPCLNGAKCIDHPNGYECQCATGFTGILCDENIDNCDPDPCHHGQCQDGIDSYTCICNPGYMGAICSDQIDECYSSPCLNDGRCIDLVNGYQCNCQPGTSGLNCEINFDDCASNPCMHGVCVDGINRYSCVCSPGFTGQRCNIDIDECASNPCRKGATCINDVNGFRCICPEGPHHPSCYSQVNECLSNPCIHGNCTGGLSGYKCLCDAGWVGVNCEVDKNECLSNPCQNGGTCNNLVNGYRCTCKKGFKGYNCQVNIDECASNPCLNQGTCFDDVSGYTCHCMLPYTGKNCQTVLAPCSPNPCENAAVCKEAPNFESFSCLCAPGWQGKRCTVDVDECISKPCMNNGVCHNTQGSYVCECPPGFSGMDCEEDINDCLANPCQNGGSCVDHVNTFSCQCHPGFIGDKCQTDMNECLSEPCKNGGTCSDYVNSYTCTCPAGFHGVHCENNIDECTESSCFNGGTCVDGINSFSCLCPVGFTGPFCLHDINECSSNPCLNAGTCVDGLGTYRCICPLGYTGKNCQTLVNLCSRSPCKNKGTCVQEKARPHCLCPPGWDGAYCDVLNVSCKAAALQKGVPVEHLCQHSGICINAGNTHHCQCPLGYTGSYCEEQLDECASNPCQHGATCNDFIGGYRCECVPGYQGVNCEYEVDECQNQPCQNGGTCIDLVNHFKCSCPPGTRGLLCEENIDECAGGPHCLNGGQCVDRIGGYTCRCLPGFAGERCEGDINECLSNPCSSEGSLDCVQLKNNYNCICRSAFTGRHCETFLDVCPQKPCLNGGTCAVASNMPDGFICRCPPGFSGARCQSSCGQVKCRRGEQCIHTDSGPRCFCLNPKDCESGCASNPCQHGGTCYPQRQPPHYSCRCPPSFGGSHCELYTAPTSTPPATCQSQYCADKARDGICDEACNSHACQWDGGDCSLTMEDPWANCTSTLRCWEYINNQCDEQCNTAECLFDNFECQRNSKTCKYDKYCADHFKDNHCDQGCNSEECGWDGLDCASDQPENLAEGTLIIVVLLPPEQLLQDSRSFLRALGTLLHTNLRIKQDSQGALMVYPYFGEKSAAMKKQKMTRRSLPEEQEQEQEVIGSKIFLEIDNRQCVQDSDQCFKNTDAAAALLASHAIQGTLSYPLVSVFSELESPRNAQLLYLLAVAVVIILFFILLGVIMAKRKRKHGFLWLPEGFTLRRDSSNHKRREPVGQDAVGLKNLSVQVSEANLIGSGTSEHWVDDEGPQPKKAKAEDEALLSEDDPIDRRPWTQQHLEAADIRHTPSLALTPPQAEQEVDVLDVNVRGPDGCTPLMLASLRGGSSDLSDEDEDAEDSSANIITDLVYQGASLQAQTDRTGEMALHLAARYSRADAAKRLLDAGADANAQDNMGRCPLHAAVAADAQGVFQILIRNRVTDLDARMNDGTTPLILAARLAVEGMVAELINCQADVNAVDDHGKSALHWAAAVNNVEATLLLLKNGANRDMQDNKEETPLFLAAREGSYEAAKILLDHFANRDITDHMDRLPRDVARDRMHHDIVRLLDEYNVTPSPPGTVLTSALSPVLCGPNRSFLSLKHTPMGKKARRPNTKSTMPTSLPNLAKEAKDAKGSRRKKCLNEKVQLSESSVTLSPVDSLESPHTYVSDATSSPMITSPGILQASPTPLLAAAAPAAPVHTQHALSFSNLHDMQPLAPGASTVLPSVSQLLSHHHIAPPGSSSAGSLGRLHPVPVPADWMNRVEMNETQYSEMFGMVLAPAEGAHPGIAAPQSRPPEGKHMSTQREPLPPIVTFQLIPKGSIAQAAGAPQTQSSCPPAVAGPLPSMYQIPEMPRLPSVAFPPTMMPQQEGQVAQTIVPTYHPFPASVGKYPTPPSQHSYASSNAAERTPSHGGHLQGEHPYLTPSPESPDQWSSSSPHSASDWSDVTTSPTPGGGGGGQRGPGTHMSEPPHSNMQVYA

In the case of `C[C@H](NC(=O)Cc1cc(F)cc(F)c1)C(=O)N[C@H](C(=O)OC(C)(C)C)c1ccccc1` [DAPT, N—[N-(3,5-difluorophenacetyl)-1-alanyl]-S-phenylglycine t-butyl ester], on Notch2, the “appearance of gamma-secretase cleaved (active) form of Notch2 (ICD)” value is listed as “absent”. In assay [1] (FIG. 2D), the progenitor cell proliferation entry is reported as “small increase”. For the same compound, the colony formation frequency entry in assay [1] (plated CD45 negative, non-parenchymal cells, without DAPT approximately 1 colony per 100,000) is listed as “approximately 1 colony per 10,000 cells plated”. In addition, the “enhancement of colony formation” value in assay [1] (primary cultures treated with DAPT vs untreated, FIG. 2B) was “approximately ten-fold”.
